Data reported in patent US8247565B2, “Sirtuin modulating compounds” (Sirtris Pharmaceuticals, Inc., priority 2007, dated 2012).
Counter-ions that a name gives are not always drawn. Blank lines part the entries; values can stand above or below the compound they belong to.

Experiments:
[1] = system: diet induced obesity model (DIO); test: Blood glucose in diet induced obesity (DIO) mouse model; format: in vivo, C57BL/6 male mice; conditions: DIO mice; for blood glucose vs vehicle: from week 2 onwards (FIGS. 3-5); for week 4 fed glucose test vs vehicle: blood glucose remained lower than vehicle
From the text: (§1) The purpose of this example was to compare the efficacy of Compound 1 in salt and free base formulations in two different mouse models of diabetes, a diet induced obesity model (DIO) and the Ob/ob mouse. Blood glucose was the main determinant through the experiment of efficacy.
For the diet induced obesity model, six week old C57BL/6 male mice (Charles River Labs) were fed a high fat diet (60% calories from fat; Research Diets) for approximately 6 weeks until their body weight reached approximately 40 g. Test compounds were administered daily via oral gavage at the indicated doses. The vehicle used was 2% HPMC and 0.2% DOSS. Individual mouse body weights were measured twice weekly. Every 2 weeks throughout the study, mice from each group were bled via the tail vein for determination of blood glucose. Statistical analysis was completed using the JMP program (Version 6). Data were analyzed by a one way ANOVA with comparison to control using a Dunnett's Test. A p value <0.05 indicated a significant difference between groups.
Compound 1 in the free base form was then tested in the DIO model.

[2] = system: Ob/ob mouse; test: Blood glucose in Ob/ob mouse model; format: in vivo; conditions: ob/ob mice, free base 100 mg/kg
From the text: as §1
Ob/ob mice are genetically manipulated knockout mice that lack leptin, an important satiety protein that neurologically signals the end of hunger. The leptin mutation is homozygous and a heterozygous strain is included as a control (Ob/+); this group should not show increased weight or blood glucose, aside from the normal effects of being on a high fat diet.
During week 1, there is already a decrease in blood glucose of almost 60 mg/dL from the vehicle group. This trend continued for the fasted glucose at week 2 (FIG. 7) as the Compound 1 group had 158.3 mg/dL glucose compared to 285.3 mg/dL glucose in the vehicle group.

[3] = Salt/free base screening by DSC and TGA (physical stability, polymorphs); format: physicochemical; conditions: for polymorphism / phase changes on heating (DSC, TGA): thermal range evaluated by DSC/TGA (FIGS. 1, 2)
Method: Eight acceptable (Regulatory and pKa) salts were made of Compound 1, namely with hydrochloric acid, sulfuric acid, methanesulfonic acid, maleic acid, phosphoric acid, L-tartaric acid, citric acid, and malic acid. The resulting salts or the free base were then screened on: • 1) Processing, morphology, polymorphs; • 2) Crystal shape, single stable polymorph; • 3) Physical stability; • 4) Open dish accelerated stability (40° C./75% RH); and • 5) Biorelevant dissolution.
Since no other thermal transitions are observed in the DSC or TGA results, it appears Compound 1 exists only as a single phase (i.e. no polymorphs) over the thermal range evaluated.
Since the polymorphic transitions can have significant effects on dissolution and bioavailability of the drug substance, it is practical to select forms of the drug substance that minimize or eliminate the potential for phase transitions.

Compound: O=C(Nc1ccccc1-c1cn2c(CN3CCNCC3)csc2n1)c1cnc2ccccc2n1 [Compound 2, N-(2-(3-(piperazin-1-ylmethyl)imidazo[2,1-b]thiazol-6-yl)phenyl)quinoxaline-2-carboxamide]
blood glucose vs vehicle ([1]; 100 mg/kg/day oral gavage): significant reductions in blood glucose | week 4 fed glucose test vs vehicle ([1]; 100 mg/kg/day): significance was lost

Compound: CN(C)C(=N)N=C(N)N [metformin, reference compound]
blood glucose vs vehicle ([1]; 400 mg/kg/day oral gavage): significant reductions in blood glucose

polymorphism / phase changes on heating (DSC, TGA) [3]: no polymorphs
Compound: Cc1nc(-c2cccnc2)sc1C(=O)Nc1ccccc1-c1cn2c(CN3CCOCC3)csc2n1 [Compound 1, 4-methyl-N-(2-(3-(morpholinomethyl)imidazo[2,1-b]thiazol-6-yl)phenyl)-2-(pyridin-3-yl)thiazole-5-carboxamide]
blood glucose vs vehicle ([1]; 100 mg/kg/day oral gavage): significant reductions in blood glucose | blood glucose vs vehicle group at weeks 2 and 3 ([1]; free base 100 mg/kg/day, weeks 2 (fed) and 3 (fasted), p value less than 0.01): significant decrease | decrease in blood glucose from the vehicle group ([2]; week 1 (FIG. 6)): ~60 mg/dL | fasted blood glucose ([2]; week 2 fasted (FIG. 7), vehicle group 285.3 mg/dL, p less than 0.0001): 158.3 mg/dL | blood glucose relative to vehicle groups ([2]; week 3 fed (FIG. 8)): significant (p<0.01) decrease

Compound: Oc1ccc(C=Cc2cc(O)cc(O)c2)cc1 [resveratrol, reference compound]
blood glucose vs vehicle ([1]; 1000 mg/kg/day oral gavage): significant reductions in blood glucose | week 4 fed glucose test vs vehicle ([1]; 1000 mg/kg/day): significance was lost

hygroscopicity ([3]; TGA weight loss on heating attributed to water loss): hygroscopic | polymorphism / phase changes on heating (DSC, TGA) [3]: transitions between polymorphic forms
Compound: Cc1nc(-c2cccnc2)sc1C(=O)Nc1ccccc1-c1cn2c(CN3CCOCC3)csc2n1 [HCl salt form of Compound 1]
